The values that follow come from patent publication US20040091960A1, “Novel physiologically active peptides and use thereof” (priority 2000, published 2004).

This assay deals with LH secretion. Put plainly: LH secretion promoting action (LH blood level). The note with it: statement only, no experiment described. It is filed as in vivo.

With “polypeptide of the present invention: mouse matured GALR2 ligand, amino acid sequence SEQ ID NO: 1, ligand peptide for galanin receptor (APAHRGRGGWTLNSAGYLLGPVLPVSSKADQGRKRDSALEILDLWKIIDGLPYSHSPRMT; Mouse)”, the “LH secretion promoting action (LH blood level increasing action)” value was “specific LH blood level increasing action”.
